Measurements from patent US20100076015A1, “Aminopyridine Derivatives” (VANTIA LIMITED, priority 2008, published 2010).

Target: T1, Human KLK1 (Homo sapiens, UniProt P06870)
T1 construct: purchased Callbiochem (Calbiochem)
Experiment: Determination of the IC50 for KLK1 (fluorogenic substrate H-DVal-Leu-Arg-AFC)
Format: biochemical
Conditions: 37° C.
Summary of the method: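 Test compound at various concentrations was incubated with human KLK1 and the fluorogenic substrate H-DVal-Leu-Arg-AFC at 37° C. Absorbance change at 410 nm gave the initial reaction rate, from which IC50 was obtained.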

T1 sequence (P06870 25-262): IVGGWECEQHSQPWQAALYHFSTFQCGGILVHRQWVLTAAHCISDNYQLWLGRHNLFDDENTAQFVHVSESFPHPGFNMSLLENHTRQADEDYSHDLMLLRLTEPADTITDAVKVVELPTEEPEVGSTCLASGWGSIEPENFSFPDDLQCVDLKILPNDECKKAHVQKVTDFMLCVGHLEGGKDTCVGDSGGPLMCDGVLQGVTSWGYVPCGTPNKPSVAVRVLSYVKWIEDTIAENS

SMILES | IC50
CCN(CC)[C@@H](CC(=O)OC)C(=O)N[C@@H](Cc1ccc(F)c(F)c1)C(=O)NCc1ccc(N)nc1 [Example 364, (S)—N-[(S)-1-[(6-Amino-pyridin-3-ylmethyl)-carbamoyl]-2-(3,4-difluoro-phenyl)-ethyl]-3-diethylamino-succinamic acid methyl ester] | 43.7 nM
Nc1ccc(CNC(=O)[C@H](Cc2ccc(F)c(F)c2)NC(=O)CN2CCCC2)cn1 [Example 366, (S)—N-(6-Amino-pyridin-3-ylmethyl)-3-(3,4-difluoro-phenyl)-2-(2-pyrrolidin-1-yl-acetylamino)-propionamide] | 54.5 nM
CCN(C)[C@@H](C)C(=O)N[C@@H](Cc1ccc(F)cc1)C(=O)NCc1ccc(N)nc1 [Example 367, (S)—N-[(S)-1-[(6-Amino-pyridin-3-ylmethyl)-carbamoyl]-2-(4-fluoro-phenyl)-ethyl]-2-(ethyl-methyl-amino)-propionamide] | 10.8 nM
CCCN(C)[C@@H](C)C(=O)N[C@@H](Cc1ccc(F)cc1)C(=O)NCc1ccc(N)nc1 [Example 368, (S)—N-[(S)-1-[(6-Amino-pyridin-3-ylmethyl)-carbamoyl]-2-(4-fluoro-phenyl)-ethyl]-2-(methyl-propyl-amino)-propionamide] | 19.4 nM
CCCCN(C)[C@@H](C)C(=O)N[C@@H](Cc1ccc(F)cc1)C(=O)NCc1ccc(N)nc1 [Example 369, (S)—N-[(S)-1-[(6-Amino-pyridin-3-ylmethyl)-carbamoyl]-2-(4-fluoro-phenyl)-ethyl]-2-(butyl-methyl-amino)-propionamide] | 29.1 nM
CC(C)[C@@H](C(=O)N[C@@H](Cc1ccc(F)cc1)C(=O)NCc1ccc(N)nc1)N(C)C(C)C [Example 370, (S)—N-[(S)-1-[(6-Amino-pyridin-3-ylmethyl)-carbamoyl]-2-(4-fluoro-phenyl)-ethyl]-2-(isopropyl-methyl-amino)-3-methyl-butyramide] | 11.3 nM
CCC(C)[C@@H](C(=O)N[C@@H](Cc1ccc(F)cc1)C(=O)NCc1ccc(N)nc1)N(C)C(C)C (stereo partly drawn) [Example 371, (S)-2-(Isopropyl-methyl-amino)-3-methyl-pentanoic acid [(S)-1-[(6-amino-pyridin-3-ylmethyl)-carbamoyl]-2-(4-fluoro-phenyl)-ethyl]-amide] | 7.3 nM
CC(C)N(C(C)C)[C@@H](C)C(=O)N[C@@H](Cc1ccc(F)cc1)C(=O)NCc1ccc(N)nc1 [Example 372, (S)—N-[(S)-1-[(6-Amino-pyridin-3-ylmethyl)-carbamoyl]-2-(4-fluoro-phenyl)-ethyl]-2-diisopropylamino-propionamide] | 34.3 nM
CC(C)N(C)[C@@H](Cc1ccccc1)C(=O)N[C@@H](Cc1ccc(F)cc1)C(=O)NCc1ccc(N)nc1 [Example 373, (S)—N-[(S)-1-[(6-Amino-pyridin-3-ylmethyl)-carbamoyl]-2-(4-fluoro-phenyl)-ethyl]-2-(isopropyl-methyl-amino)-3-phenyl-propionamide] | 25.7 nM
C[C@H](C(=O)N[C@@H](Cc1ccc(F)cc1)C(=O)NCc1ccc(N)nc1)N1CCCCC1 [Example 374, (R)—N-[(S)-1-[(6-Amino-pyridin-3-ylmethyl)-carbamoyl]-2-(4-fluoro-phenyl)-ethyl]-2-piperidin-1-yl-propionamide] | 52.7 nM
C[C@@H](C(=O)N[C@@H](Cc1ccc(F)cc1)C(=O)NCc1ccc(N)nc1)N1CCCCC1 [Example 375, (S)—N-[(S)-1-[(6-Amino-pyridin-3-ylmethyl)-carbamoyl]-2-(4-fluoro-phenyl)-ethyl]-2-piperidin-1-yl-propionamide] | 4.9 nM
CCN(CC)[C@@H](C)C(=O)N[C@@H](Cc1ccc(F)cc1)C(=O)NCc1ccc(N)nc1 [Example 376, (S)—N-[(S)-1-[(6-Amino-pyridin-3-ylmethyl)-carbamoyl]-2-(4-fluoro-phenyl)-ethyl]-2-diethylamino-propionamide] | 2.7 nM
CCC(C)[C@H](C(=O)N[C@@H](Cc1cccc(F)c1)C(=O)NCc1ccc(N)nc1)N(C)C (stereo partly drawn) [Example 377, (R)-2-Dimethylamino-3-methyl-pentanoic acid [(S)-1-[(6-amino-pyridin-3-ylmethyl)-carbamoyl]-2-(3-fluoro-phenyl)-ethyl]-amide] | 32.2 nM
CC1CCCC(C)N1CC(=O)N[C@@H](Cc1ccc(F)cc1)C(=O)NCc1ccc(N)nc1 (stereo partly drawn) [Example 378, (S)—N-(6-Amino-pyridin-3-ylmethyl)-2-[2-(2,6-dimethyl-piperidin-1-yl)-acetylamino]-3-(4-fluoro-phenyl)-propionamide] | 2.5 nM
Nc1ccc(CNC(=O)[C@H](Cc2ccc(F)cc2)NC(=O)CN2CCCCC2)cn1 [Example 379, (S)—N-(6-Amino-pyridin-3-ylmethyl)-3-(4-fluoro-phenyl)-2-(2-piperidin-1-yl-acetylamino)-propionamide] | 128 nM
CCN(CC)CC(=O)N[C@@H](Cc1ccc(F)cc1)C(=O)NCc1ccc(N)nc1 [Example 380, (S)—N-(6-Amino-pyridin-3-ylmethyl)-2-(2-diethylamino-acetylamino)-3-(4-fluoro-phenyl)-propionamide] | 13.9 nM

SMILES | IC50
CN1CCC[C@H]1C(=O)N[C@@H](CC1CCCCC1)C(=O)NCc1ccc(N)nc1 [Example 382, (S)-1-Methyl-pyrrolidine-2-carboxylic acid {(S)-1-[(6-amino-pyridin-3-ylmethyl)-carbamoyl]-2-cyclohexyl-ethyl}-amide] | 48.6 nM
CCCN(C)[C@@H](C)C(=O)N[C@@H](CC1CCCCC1)C(=O)NCc1ccc(N)nc1 [Example 383, (S)—N-{(S)-1-[(6-Amino-pyridin-3-ylmethyl)-carbamoyl]-2-cyclohexyl-ethyl}-2-(methyl-propyl-amino)-propionamide] | 45.9 nM
CCN(C)[C@@H](C)C(=O)N[C@@H](CC1CCCCC1)C(=O)NCc1ccc(N)nc1 [Example 384, (S)—N-{(S)-1-[(6-Amino-pyridin-3-ylmethyl)-carbamoyl]-2-cyclohexyl-ethyl}-2-(ethyl-methyl-amino)-propionamide] | 9.7 nM
CCCN(CCC)[C@@H](C)C(=O)N[C@@H](CC1CCCCC1)C(=O)NCc1ccc(N)nc1 [Example 385, (S)—N-{(S)-1-[(6-Amino-pyridin-3-ylmethyl)-carbamoyl]-2-cyclohexyl-ethyl}-2-dipropylaminopropionamide] | 107 nM
CN(C)[C@@H](CO)C(=O)N[C@@H](CC1CCCCC1)C(=O)NCc1ccc(N)nc1 [Example 386, (S)—N-{(S)-1-[(6-Amino-pyridin-3-ylmethyl)-carbamoyl]-2-cyclohexyl-ethyl}-2-dimethylamino-3-hydroxy-propionamide] | 260 nM
CCN(C)[C@@H](CO)C(=O)N[C@@H](CC1CCCCC1)C(=O)NCc1ccc(N)nc1 [Example 387, (S)—N-{(S)-1-[(6-Amino-pyridin-3-ylmethyl)-carbamoyl]-2-cyclohexyl-ethyl}-2-(ethyl-methyl-amino)-3-hydroxy-propionamide] | 170 nM
CC(C)N(C)[C@@H](CO)C(=O)N[C@@H](CC1CCCCC1)C(=O)NCc1ccc(N)nc1 [Example 388, (S)—N-{(S)-1-[(6-Amino-pyridin-3-ylmethyl)-carbamoyl]-2-cyclohexyl-ethyl}-3-hydroxy-2-(isopropyl-methyl-amino)-propionamide] | 22.2 nM
CCN(CC)[C@@H](CO)C(=O)N[C@@H](CC1CCCCC1)C(=O)NCc1ccc(N)nc1 [Example 389, (S)—N-{(S)-1-[(6-Amino-pyridin-3-ylmethyl)-carbamoyl]-2-cyclohexyl-ethyl}-2-diethylamino-3-hydroxy-propionamide] | 42.9 nM
C[C@@H](C(=O)N[C@@H](CC1CCCCC1)C(=O)NCc1ccc(N)nc1)N(C)C [Example 391, (S)—N-{(S)-1-[(6-Amino-pyridin-3-ylmethyl)-carbamoyl]-2-cyclohexyl-ethyl}-2-dimethylamino-propionamide] | 49.4 nM
CC1CCCC(C)N1CC(=O)N[C@@H](CC1CCCCC1)C(=O)NCc1ccc(N)nc1 (stereo partly drawn) [Example 392, (S)—N-(6-Amino-pyridin-3-ylmethyl)-3-cyclohexyl-2-[2-(2,6-dimethyl-piperidin-1-yl)-acetylamino]-propionamide] | 47.2 nM
CC(C)N(CC(=O)N[C@@H](CC1CCCCC1)C(=O)NCc1ccc(N)nc1)C(C)C [Example 393, (S)—N-(6-Amino-pyridin-3-ylmethyl)-3-cyclohexyl-2-(2-diisopropylamino-acetylamino)-propionamide] | 26.9 nM
CC(C)N(CC(=O)N[C@@H](CC1CCCC2CCCCC21)C(=O)NCc1ccc(N)nc1)C(C)C (stereo partly drawn) [Example 394, (S)—N-(6-Amino-pyridin-3-ylmethyl)-3-(decahydro-naphthalen-1-yl)-2-(2-diisopropylamino-acetylamino)-propionamide] | 8.4 nM
CC(C)N(C)[C@@H](C)C(=O)N[C@@H](CC1CCCC2CCCCC21)C(=O)NCc1ccc(N)nc1 (stereo partly drawn) [Example 395, (S)—N-[(S)-1-[(6-Amino-pyridin-3-ylmethyl)-carbamoyl]-2-(decahydro-naphthalen-1-yl)-ethyl]-2-(isopropyl-methyl-amino)-propionamide] | 0.17 nM
CN1CCC[C@@H]1C(=O)N[C@@H](CC1CCCC2CCCCC21)C(=O)NCc1ccc(N)nc1 (stereo partly drawn) [Example 396, (R)-1-Methyl-pyrrolidine-2-carboxylic acid [(S)-1-[(6-amino-pyridin-3-ylmethyl)-carbamoyl]-2-(decahydro-naphthalen-1-yl)-ethyl]-amide] | 1.4 nM
CN(C)[C@H](Cc1ccccc1)C(=O)N[C@@H](CC1CCCC2CCCCC21)C(=O)NCc1ccc(N)nc1 (stereo partly drawn) [Example 397, (R)—N-[(S)-1-[(6-Amino-pyridin-3-ylmethyl)-carbamoyl]-2-(decahydro-naphthalen-1-yl)-ethyl]-2-dimethylamino-3-phenyl-propionamide] | 44.2 nM
CC(C)[C@H](C(=O)N[C@@H](Cc1ccc(Cl)c(Cl)c1)C(=O)NCc1ccc(N)nc1)N(C)C [Example 399, (R)—N-[(S)-1-[(6-Amino-pyridin-3-ylmethyl)-carbamoyl]-2-(3,4-dichloro-phenyl)-ethyl]-2-dimethylamino-3-methyl-butyramide] | 0.74 nM
